From article PMC6385645 (Chemical Science, 2018)
Ends that are not written are not given here. Peptide text beside a SMILES is read from it. * marks the point of attachment. X1 = Nc1ncnc2c1ncn2[C@@H]1O[C@H](COP(=O)(O)NC(=O)[C@H](CC(=O)O)N*)[C@@H](O)[C@H]1O; For = O=C*

Legend:
YejABEF importer = conditions: 4 vs the peptide lacking the N-formyl moiety 3; cited from earlier work
wild type MccB = assay: Competition FP binding assay, wild type MccB, fMccA-FITC probe; set-up: species or system E. coli; conditions: even at concentrations greater than 5 mM
MccB = assay: PNP-coupled Michaelis–Menten kinetics of MccB; conditions: wild-type MccB

| displacement of bound FITC-labeled N-formylated 2 (wild type MccB) | Compound | substrate quality for YejABEF importer (YejABEF importer) | substrate inhibition of MccB (MccB) |
| --- | --- | --- | --- |
|  | CSCC[C@H](NC=O)C(=O)N[C@@H](CCCNC(=N)N)C(=O)N[C@H](C(=O)NCC(=O)N[C@@H](CC(N)=O)C(=O)N[C@@H](C)C(=O)N[C@@H](CC(=O)O)C(=O)NP(=O)(O)OC[C@H]1O[C@@H](n2cnc3c(N)ncnc32)[C@H](O)[C@@H]1O)[C@@H](C)O [compound 4] (For-MRTGNA-X1) | significantly better substrate |  |
| could not displace | MRTGNAN [compound 1] |  | but not with the desformyl 1 peptide |
